Measurements: the supplement of paper PMC10307832

compound: CN1CCN(CC1)C2=CC(=C(C=C2)NC3=NC=C4C(=N3)N(C5=CC=CC=C5C(=O)N4C)C)OC [XMD8-85] + COc1cc2c(Oc3ccc(NC(=O)C4(C(=O)Nc5ccc(F)cc5)CC4)cc3F)ccnc2cc1OCCCN1CCOCC1 [Foretinib] (partner 0.25 µM); assay: relative viability (nuclei count vs DMSO), 5 days (fraction); higher = more cells survive; details: first compound 0.08 µM
Method in brief: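 One day after seeding in 1536-well plates, lung cancer cell lines were dosed by pin tool. Dosing was either single-drug or a fixed anchor-drug dose plus five library-drug doses (not always all listed) in √10 steps. After 5 days, nuclei were stained in one fix-and-stain step and counted on 4× images, and relative viability is the nuclei count of treated wells over that of vehicle wells, given as the median of duplicate plates.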

Cell Line	relative viability
201T	1.13
A-427	1.22
ABC-1	0.871
BEN	0.729
CAL-12T	1.18
EKVX	0.716
EMC-BAC-2	1.1
EPLC-272H	0.619
H3255	1.03
HARA	1.09
HCC-15	1.05
HCC-78	0.539
HCC-366	0.991
HCC-827	1.03
HOP-62	1.14
LC-2-ad	0.866
LCLC-97TM1	0.934
LCLC-103H	0.842
LU99A	0.768
LXF-289	0.887
NCI-H23	1.08
NCI-H322M	0.733
NCI-H358	0.656
NCI-H441	1.11
NCI-H460	1.07
NCI-H596	0.844
NCI-H647	1.37
NCI-H650	1.05
NCI-H1703	0.353
SW 900	0.942

same assay, conditions: first compound 0.253 µM

Cell Line	relative viability
201T	1.24
A-427	1.03
ABC-1	0.9
BEN	0.543
CAL-12T	1.17
EKVX	0.864
EMC-BAC-2	1.05
EPLC-272H	0.717
H3255	0.917
HARA	0.701
HCC-15	1.01
HCC-78	0.572
HCC-366	1.04
HCC-827	1.1
HOP-62	1.13
LC-2-ad	0.976

Cell Line	relative viability
LCLC-97TM1	0.95
LCLC-103H	0.919
LK-2	1.05
LOU-NH91	0.966
LXF-289	0.997
NCI-H23	0.778
NCI-H322M	0.856
NCI-H358	0.774
NCI-H441	0.971
NCI-H460	1.09
NCI-H596	0.85
NCI-H647	1.3
NCI-H650	0.997
NCI-H1703	0.363
SW 900	0.922

same assay, conditions: first compound 0.8 µM

Cell Line	relative viability
201T	1.13
A-427	1.12
ABC-1	1.41
BEN	0.509
CAL-12T	1.24
EKVX	0.836
EMC-BAC-2	0.975
EPLC-272H	0.751
H3255	0.892
HARA	0.97
HCC-15	0.963
HCC-78	0.519
HCC-366	0.988
HCC-827	0.948
HOP-62	0.971
LC-2-ad	0.995

Cell Line	relative viability
LCLC-97TM1	0.959
LCLC-103H	0.692
LK-2	1.01
LOU-NH91	0.863
LU99A	0.761
LXF-289	0.993
NCI-H23	1.08
NCI-H322M	1.01
NCI-H358	0.84
NCI-H441	1.15
NCI-H460	1.05
NCI-H596	0.983
NCI-H647	1.34
NCI-H650	0.947
NCI-H1703	0.33
SW 900	1.58

same assay, conditions: first compound 2.53 µM

Cell Line	relative viability
201T	0.733
A-427	0.889
ABC-1	0.947
BEN	0.438
CAL-12T	1.06
EKVX	0.971
EMC-BAC-2	0.965
EPLC-272H	0.47
H3255	0.931
HARA	0.782
HCC-15	1.05
HCC-78	0.537
HCC-366	0.937
HCC-827	1.13
HOP-62	0.946
LC-2-ad	0.785

Cell Line	relative viability
LCLC-97TM1	1.01
LCLC-103H	0.857
LK-2	0.554
LOU-NH91	1.02
LU99A	0.854
LXF-289	0.977
NCI-H23	0.77
NCI-H322M	0.8
NCI-H358	0.673
NCI-H441	1.13
NCI-H460	0.948
NCI-H596	0.642
NCI-H647	1.04
NCI-H650	1.04
NCI-H1703	0.374
SW 900	0.466

same assay, conditions: first compound 8 µM

Cell Line	relative viability
201T	0.703
A-427	0.828
ABC-1	0.578
BEN	0.304
CAL-12T	0.346
EKVX	0.664
EMC-BAC-2	0.754
EPLC-272H	0.436
H3255	0.627
HARA	0.583
HCC-15	0.766
HCC-78	0.531
HCC-366	0.748
HCC-827	1.11
HOP-62	0.466
LC-2-ad	0.607

Cell Line	relative viability
LCLC-97TM1	1
LCLC-103H	0.554
LK-2	0.389
LOU-NH91	0.843
LU99A	0.597
LXF-289	0.812
NCI-H23	0.866
NCI-H322M	0.631
NCI-H358	0.422
NCI-H441	0.644
NCI-H460	0.78
NCI-H596	0.502
NCI-H647	0.865
NCI-H650	0.685
NCI-H1703	0.35
SW 900	0.403
